Data from paper PMC11645656, “MRGPRX4 mediates phospho-drug associated pruritus in a humanized mouse model” (Science translational medicine, 2024).
Values joined by “and” are separate entries in the source; they are usually repeats but may differ in a detail not shown here. Identical values can stand only once.

What was measured:
Format in all cases: cell-based
[1] = target: T1, MRGPRX4 (S83) (Homo sapiens, UniProt Q96LA9, L83S); assay: EC50 determination, intracellular calcium mobilization in MRGPRX4 stably expressed HEK293 cells (FLIPR Calcium 5, Flexstation-3); parameters: Fig. 1D dose-response, calcium mobilization response (individual replicate) / calcium mobilization response (Fig. 1D dose-response raw data): unit not given here
T1 construct: expressed in transfected cells
T1 sequence (Q96LA9 whole entry L83S): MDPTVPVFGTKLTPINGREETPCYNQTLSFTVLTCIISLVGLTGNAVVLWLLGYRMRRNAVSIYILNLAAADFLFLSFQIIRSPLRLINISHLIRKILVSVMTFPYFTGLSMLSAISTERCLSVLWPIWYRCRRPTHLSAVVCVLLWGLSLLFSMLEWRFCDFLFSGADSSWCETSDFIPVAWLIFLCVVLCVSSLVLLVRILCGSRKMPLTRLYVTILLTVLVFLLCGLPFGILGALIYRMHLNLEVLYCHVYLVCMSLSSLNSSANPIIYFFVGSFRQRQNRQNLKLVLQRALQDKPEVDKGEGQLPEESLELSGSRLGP
Description: HEK293 cells and MRGPRX4 stably expressed HEK293 cells were seeded in 100 μl culture media on 96-well plates at a density of 40,000 cells per well and incubated overnight. The next day, the media were replaced with a dye-loading solution from the FLIPR Calcium 5 assay kit (Molecular Devices), diluted in Hank's Balanced Salt Solution (HBSS) with 20 mM HEPES, pH 7.4. After 1 h of incubation at 37°C, cells were allowed to recover for 10 min in the dark at room temperature prior to performing intracellular calcium mobilization assay in a Flexstation-3 instrument with SoftMax®Pro 7.1 software (Molecular Devices). Serial concentrations of tested drugs were prepared in HBSS/HEPES solution at 3X concentration. […] Compounds were tested in triplicates and the signals were averaged. Responses were determined by subtracting the minimum signal (at the baseline before adding the drug) from the maximum signal (obtained after drug stimulation). Four-parameter logistic (4PL) curve fit was used to plot the dose-response curves. […] Both dose-response curve fitting and EC50s calculation are computed with GraphPad Prism software (version: 6.o or above).

[2] = target: MRGPRX4 WT (S83) (Homo sapiens, UniProt Q96LA9, L83S); assay: PRESTO-Tango β-arrestin recruitment assay, HTLA cells stably expressing WT (S83) MRGPRX4; parameters: expressed in transfected cells; conditions: HTLA::MRGPRX4
MRGPRX4 WT (S83), sequence (Q96LA9 whole entry L83S, the tested form may be a part): as the sequence (Q96LA9 whole entry L83S) above
Description: HTLA cells, a cell line derived from HEK293 and engineered to stably express a tTA-dependent luciferase reporter and a β-arrestin2-TEV fusion gene, were generously provided by Richard Axel's laboratory. HTLA cells were cultured in growth medium containing 2 μg/ml puromycin and 100 μg/ml hygromycin B in 5% CO2 at 37 °C. Stably MRGPRX4-expressing HTLA cells were generated by transfecting pcDNA3.1(+)-Zeo containing MRGPRX4-Tango construct (either with WT or S83L mutant sequence) into HTLA cells with Lipofectamine 3000 and selecting the successful transfected clones with Zeocin.
HTLA cells stably expressing either WT or S83L MRGPRX4 were seeded in PDL-coated 96-well white clear bottom cell culture plates with DMEM containing 10% FBS, at a density of 35,000 cells per well and were allowed to attach to the bottom of the wells overnight. The next day, growth medium was replaced with 100 μl of serum-free medium containing the tested drugs at various concentrations, and the cells were then incubated at 37°C for 24 h. On the following day, media with drug solutions was removed and 50 μl per well of Bright-Glo™ Reagent from Bright-Glo™ Luciferase Assay System (Promega) was loaded. The plate was incubated at room temperature in the dark for 5 min, and the relative luminescence units were measured using the Flexstation-3 instrument with SoftMax®Pro 7.1 software (Molecular Devices). Dose response curves and EC50s were analyzed as described above.
Data are from at least two independent experiments, each performed in
triplicate, and are depicted as mean ± SEM.
arrestin2-TEV fusion gene and a tTA -dependent luciferase reporter.

[3] = tested on: HTLA cells; assay: PRESTO-Tango β-arrestin recruitment assay, parental HTLA cells without MRGPRX4 (control, fig. S1)
Text: Supplement NIHMS2038790-supplement-table.xlsx, sheet "fig. S1" | column: Concentration (M)

With `C[C@@H]1C[C@H]2[C@@H]3CCC4=CC(=O)C=C[C@]4(C)[C@@]3(F)[C@@H](O)C[C@]2(C)[C@@]1(O)C(=O)CO` [Dexamethasone] as the compound, how does the “Fig. 1D dose-response, calcium mobilization response (individual replicate)” value ([1]; Concentration 9.76563e-7 M) read?
Its value is -21.027 and -38.068 and -44.01 and -38.887 and -46.292 and -51.601 and -47.998 and -19.021 and -24.245.

What about the “Fig. 1D dose-response, calcium mobilization response (individual replicate)” value ([1]; Concentration 1.95313e-6 M) of the same compound?
Its value is -34.306 and -12.488 and -34.424 and -46.421 and -44.65 and -42.861 and -53.58 and -51.620 and -38.055.

And the “Fig. 1D dose-response, calcium mobilization response (individual replicate)” value ([1]; Concentration 3.90625e-6 M)?
The value was -45.647 and -46.32 and -35.376 and -38.61 and -34.811 and -45.234 and -56.373 and -60.668 and -3.309.

And the “Fig. 1D dose-response, calcium mobilization response (individual replicate)” value ([1]; Concentration 7.8125e-6 M)?
Its value is -36.025 and -46.229 and -47.556 and -37.359 and -53.743 and -48.739 and -48.609 and -47.284 and -56.875.

And the “Fig. 1D dose-response, calcium mobilization response (individual replicate)” value ([1]; Concentration 1.5625e-5 M)?
Its value is -54.866 and -50.537 and -42.313 and -47.552 and -53.2 and -55.3 and -57.812 and -33.441 and -66.652.

What about the “Fig. 1D dose-response, calcium mobilization response (individual replicate)” value ([1]; Concentration 3.125e-5 M) of the same compound?
The value was -56.076 and -45.2 and -44.531 and -46.041 and -46.006 and -58.081 and -60.475 and -59.746 and -11.251.

What about the “Fig. 1D dose-response, calcium mobilization response (individual replicate)” value ([1]; Concentration 6.25e-5 M) of the same compound?
Its value is -51.427 and -36.666 and -43.901 and -55.62 and -42.251 and -57.261 and -57.456 and -8.995 and -73.787.

What about the “Fig. 1D dose-response, calcium mobilization response (individual replicate)” value ([1]; Concentration 0.00025 M) of the same compound?
Its value is -40.896 and -34.789 and -49.545 and -32.204 and -28.295 and -45.507 and -42.773 and -53.155 and -37.185.

What about the “Fig. 1D dose-response, calcium mobilization response (individual replicate)” value ([1]; Concentration 0.0005 M) of the same compound?
The value was -3.046 and -9.71 and -33.403 and -15.448 and -3.273 and -16.368 and -26.248 and -13.645 and -6.391.

What about the “Fig. 1D dose-response, calcium mobilization response (individual replicate)” value ([1]; Concentration 0.001 M) of the same compound?
The value was -8.458 and -6.416 and -11.748 and -15.382 and -27.522 and -19.884 and -14.893 and -13.481 and -19.179.

What about the “PRESTO-Tango response (fig. S1), single replicate” value (“PRESTO-Tango response (fig. S1)” for short) ([2]; concentration 9.77e-7 M) of the same compound?
Its value is 0.05502 and 0.04613 and 0.0583 and 0.05727 and 0.00632 and 0.09586.

And the “PRESTO-Tango response (fig. S1)” value ([2]; concentration 1.95e-6 M)?
The value was 0.08603 and 0.06619 and 0.1004 and 0.1201 and 0.05846 and 0.07406.

What about the “PRESTO-Tango response (fig. S1)” value ([2]; concentration 0.000004 M) of the same compound?
Its value is 0.0533 and 0.07958 and 0.05713 and 0.07013 and 0.1112 and 0.008646.

What about the “PRESTO-Tango response (fig. S1)” value ([2]; concentration 0.000008 M) of the same compound?
The value was 0.06153 and 0.0682 and 0.07104 and 0.08136 and 0.03922 and 0.08019.

And the “PRESTO-Tango response (fig. S1)” value ([2]; concentration 3.13e-5 M)?
The value was 0.0689 and 0.04671 and 0.04196 and 0.06207 and 0.03885 and 0.05666.

And the “PRESTO-Tango response (fig. S1)” value ([2]; concentration 6.25e-5 M)?
Its value is 0.03211 and 0.04959 and 0.04067 and 0.02014 and 0.05174 and 0.05049.

What about the “PRESTO-Tango response (fig. S1)” value ([2]; concentration 0.00025 M) of the same compound?
Its value is 0.07947 and 0.03843 and 0.03927 and 0.03864 and 0.06682 and 0.0517.

What about the “PRESTO-Tango response (fig. S1)” value ([2]; concentration 0.0005 M) of the same compound?
The value was 0.06213 and 0.03131 and 0.04202 and 0.04862 and 0.02625 and 0.06059.

And the “PRESTO-Tango response (fig. S1)” value ([2]; concentration 0.001 M)?
Its value is 0.05095 and 0.05745 and 0.03908 and 0.09388 and 0.02339 and 0.03021.

And the “PRESTO-Tango response (fig. S1)” value ([3]; concentration 9.77e-7 M)?
The value was 0.004822 and 0.002858 and 0.001836 and 0.006042 and 0.003642 and 0.003121.

What about the “PRESTO-Tango response (fig. S1)” value ([3]; concentration 1.95e-6 M) of the same compound?
Its value is 0.004669 and 0.01135 and 0.007279 and 0.01201 and 0.004751 and 0.007109.

What about the “PRESTO-Tango response (fig. S1)” value ([3]; concentration 0.000004 M) of the same compound?
Its value is 0.004146 and 0.005626 and 0.002299 and 0.005155 and 0.007205 and 0.002627.

What about the “PRESTO-Tango response (fig. S1)” value ([3]; concentration 0.000008 M) of the same compound?
The value was 0.006851 and 0.005435 and 0.002472 and 0.006078 and 0.009879 and 0.006343.

And the “PRESTO-Tango response (fig. S1)” value ([3]; concentration 3.13e-5 M)?
Its value is 0.004236 and 0.003572 and 0.004837 and 0.002213 and 0.004661 and 0.004714.

What about the “PRESTO-Tango response (fig. S1)” value ([3]; concentration 6.25e-5 M) of the same compound?
Its value is 0.00398 and 0.007183 and 0.008495 and 0.006729 and 0.001521 and 0.004353.

And the “PRESTO-Tango response (fig. S1)” value ([3]; concentration 0.00025 M)?
Its value is 0.001595 and 0.004197 and 0.004126 and 0.004268 and 0.000295 and 0.005991.

And the “PRESTO-Tango response (fig. S1)” value ([3]; concentration 0.0005 M)?
Its value is 0.002985 and 0.003661 and 0.004712 and 0.003009 and 0.002249 and 0.001042.

And the “PRESTO-Tango response (fig. S1)” value ([3]; concentration 0.001 M)?
Its value is 0.002207 and 0.002577 and 0.002201 and 0.000402 and 0.004573 and 0.000993.
